# Experimental data from patent US9549922B2, “Use of eribulin and lenvatinib as combination therapy for treatment of cancer” (priority 2013, dated 2017).
# Entries after “also recorded” stand apart in the source; their conditions may differ.
# Key:
# [1] = test system: A375 human malignant melanoma xenografts; assay: Antitumor activity in A375 human malignant melanoma xenograft model (tumor volume); assay type: in vivo; conditions: single agent at highest dose: E7389 3.0 mg/kg i.v. Q7Dx2; E7080 15 mg/kg p.o. Q1Dx14; female athymic mice
# From the text: Following randomization, drug treatment was initiated.
# A value of P<0.05 was considered statistically significant.
# [2] = test system: NCI-H1993 human non-small cell lung cancer xenografts; assay: Antitumor activity in NCI-H1993 human non-small cell lung cancer xenografts (tumor volume); assay type: in vivo, mice; conditions: single treatment: E7389 1.5 mg/kg i.v. Q7Dx2; E7080 10 mg/kg p.o. Q1Dx12
# Description: (§1) Human non-small cell lung cancer cell lines, NCI-H1993 and PC-9, were maintained in monolayer cultures in RPMI-1640 medium supplemented with 10% Fetal Bovine Serum and 1% of Penicillin-Streptomycin-Amphotericin at 37° C. in a 5% CO2 humidified incubator. On the day of inoculation, cells were harvested by Trypsinization, washed, and mixed 1:1 (v/v) with medium/GelTrex. NCI-H1993 and PC-9 human non-small cell lung cancer cells (10×10^6 cells per animal) were inoculated subcutaneously near the right axillary area using a 26-gauge needle in a 0.1 mL volume in female immuncompromised mice (Mouse: BALB/c Slc nu/nu; Japan SLC, Inc.).
# (§2) The experiment consisted of a no inject control group, a single agent drug-treated group for either E7389 (1.5 mg/kg) or E7080 (10 mg/kg), and combination drug-treated groups. Each group was composed of five mice. […] Following randomization, drug treatment was initiated. E7389 (1.5 mg/kg) was intravenously administered weekly for two weeks (Q7Dx2). E7080 was orally administered daily for 12 days (Q1Dx12). Both drugs were administered at a volume of 0.1 mL per 10 g body weight.
# (§3) Tumor volume was determined by caliper measurements (mm) using the formula Tumor volume (mm^3)=length (mm)×width^2(mm^2)×½
# (§4) The mean±SD for tumor volume for each experimental group was calculated. […]
# [3] = Relative body weight change in A375 xenograft study; assay type: in vivo, mice; conditions: E7389 alone at 3.0 mg/kg i.v. Q7Dx2
# Description: The experiment consisted of a vehicle-treated control group, a single agent drug-treated group for either E7389 or E7080, and three combination drug-treated groups (summarized in Table 1). Each group was composed of six mice for a total of 48 mice on the first day of treatment. […] Following randomization, drug treatment was initiated. E7080 was orally administered daily for 14 days (Q1Dx14) at a volume of 0.1 mL per 10 g body weight. E7389 (0.05 mg/kg) was intravenously administered daily for 14 days. In the combination group, E7389 was administered three hours after oral administration of E7080. […]
# The general health of the mice was monitored daily. Tumor volume was determined by caliper measurements (mm) using the formula (1×w^2)/2=mm^3, where 1 and w refer to the larger and smaller perpendicular dimensions collected at each measurement. Tumor dimensions and body weight were recorded twice per week starting the first day of treatment. Relative body weight was calculated as follows: Relative body weight=(body weight on day of measurement)/(body weight on first day of treatment).
# The data generated consisted of group mean body weights at each measurement and group mean tumor volumes at each measurement. The mean±SEM for tumor volume and relative body weight for each experimental group was calculated.
# [4] = test system: PC-9 human non-small cell lung cancer xenografts; assay: Antitumor activity in PC-9 human non-small cell lung cancer xenografts (tumor volume); assay type: in vivo, mice; conditions: single treatment: E7389 1.5 mg/kg i.v. Q7Dx2; E7080 10 mg/kg p.o. Q1Dx12
# Description: as §1, §2, §3, §4
# in vivo = conditions: athymic, mouse
SMILES,antitumor effect (tumor volume) [1],antitumor activity (tumor volume) [2],relative body weight change [3],antitumor activity (tumor volume) [4],"MTD at 14 days (in vivo; other: E7389 i.v., E7080 p.o.) [mg/kg]",MTD at 14 days (in vivo) [mg/kg]
"C=C1C[C@@H]2CC[C@@]34C[C@H]5O[C@@H]6[C@@H](O3)[C@H]3O[C@H](CC[C@@H]3O[C@H]6[C@H]5O4)CC(=O)C[C@@H]3[C@@H](OC)[C@@H](C[C@H](O)CN)O[C@H]3C[C@H]3O[C@@H](CC[C@@H]1O2)C[C@@H](C)C3=C.CS(=O)(=O)O [E7389, (2R,3R,3aS,7R,8aS,9S,I0aR,11S,12R,13aR,13bS,15S,18S,21S,24S,26R,28R,29aS)-2-[(2S)-3-amino-2-hydroxypropyl]hexacosahydro-3-methoxy-26-methyl-20,27-bis(methylene)-11,15:18,21:24,28-triepoxy-7,9-ethano-12,15-methano-9H,15H-furo[3,2-i]furo[2′,3′:5,6]pyrano[4,3-b][1,4]dioxacyclopentacosin-5(4H)-one, methanesulfonate (salt)]","tumor growth delay, but not tumor regression; also recorded: strong antitumor activity",significant antitumor activity,Body weight loss was observed,significant antitumor activity,3,
"COc1cc2nccc(Oc3ccc(NC(=O)NC4CC4)c(Cl)c3)c2cc1C(N)=O.CS(=O)(=O)O [E7080, 4-[3-chloro-4-[[(cyclopropylamino)carbonyl]amino]phenoxy]-7-methoxy-6-quinolinecarboxamide, methanesulfonate (1:1)]","tumor growth delay, but not tumor regression",significant antitumor activity,,significant antitumor activity,,15
